Drawing on patent US6228841A, “Peptide derivatives” (Daiichi Pharmaceutical Co., Ltd., priority 1995, dated 2001), this text covers ED50 for one molecule.

Like-named read-outs stand apart in the source and are kept apart here.

The assay relates to mice. Kind of assay: analgesic activity by pressure stimulation method (base of tail). The format is in vivo. Conditions: Mus musculus, read-out: ED50 (dose providing 50% of % of MPE, analgesic activity). Here is the method:
The analgesic activities of peptide derivatives of the present invention were evaluated by pressure stimulation method as follows. Mice were subjected to pressure stimulation at the bases of their tails at a rate of 10 mmHg/second. […] For the experiments, mice that were preliminary determined to respond to a pressure of 40-50 mmHg were used. The maximum stimulating pressure was 100 mmHg. Analgesic activity was calculated as percent of maximum possible effect (% of MPE) according to the following equation: [formula]
wherein Po is the pain reaction threshold before the administration of a drug; Pt is the pain reaction threshold "t" minutes after the administration of the drug; and Pc is the maximum stimulating pressure. According to a dose-response curve, ED50 value was determined as a dose of drug providing 50% of % of MEP and used for comparison of analgesic activity of drugs.

Usually ED50 stands for the midpoint of the dose-response relation. Take `CN1CC[C@]23c4c5ccc(O)c4O[C@H]2[C@@H](O)C=C[C@H]3[C@H]1C5` [morphine]: the ED50 (oral administration) was 29.6 mg/kg and the ED50 (sc, subcutaneous administration (skin in the backs)) stood at 4.6 mg/kg.
